In patent publication US12673017B2, “Ultra-mild, concentrated and self-preserving cleansing compositions for personal care” (GALAXY SURFACTANTS LTD, priority 2022, dated 2026):

System: blood capillaries of chorioallantoic membrane of hen's fertilized egg
Experiment: HET-CAM test (hen's egg test on chorioallantoic membrane, Invittox protocol 47)
Parameters: species or system White Leghorn chicken
Details: for Irritancy Score by HET-CAM: Table 2, individual surfactants
Text: The HET-CAM (Hen's egg test on chorioallantoic membrane, as per Invittox Protocol 47) method. The hen's egg test on Chorioallantoic Membrane (HET-CAM) is an alternative in-vitro method developed by Luepke et al. to substitute Draize test that was done on rabbits. (Luepke N. Hen's egg chorioallantoic membrane test for irritation potential. Food Chem Toxicol. 1985; 23(2):287-291). It is subsequently modified by […] et al. ([…] Test. The […]. Databank of in-vitro techniques. […] Subsequently, the methodology is successfully adopted to personal care by […] et al. ([…], Bracher M, Courtellemont P, de Silva O. The HET-CAM, a useful in vitro assay for assessing the eye irritation properties of cosmetic formulations and ingredients. Toxicol. […] The egg's shell is opened at the side of the air chamber, and the egg white membrane is removed while avoiding any damage to the fine blood vessels. […] Based on Irritation score the damaging potential is classified into four categories as described in the table 1 below. White Leghorn chicken eggs (up to 9 days of incubation) are candled to ensure that all are viable. Egg shell is marked using a rotating dentist-sawblade and the section of the shell is removed. The membrane is carefully moistened with 0.9% NaCl solution and the eggs are replaced in incubator until ready for assaying. […] Onset of haemorrhage (Bleedings), vascular lysis (Blood vessel disintegration), coagulation (protein denaturation intra and extra vascular) is monitored. The onset of the biological endpoints is recorded in number of seconds and the irritancy scores are calculated as per formula prescribed in the protocol document. The irritancy score is broadly divided into four different categories of damaging potential as described in Table 1.

Lauryl glucoside
Irritancy Score by HET-CAM (1% test solution): 6.5

Caprylyl/capryl glucoside
Irritancy Score by HET-CAM (1% test solution): 8

CCCCCCCCCCCCOS(=O)(=O)[O-].[Na+] [Sodium lauryl sulphate]
Irritancy score (IS) by HET-CAM: around 16 | Irritancy Score by HET-CAM (1% test solution): 16.7 | C, calculated coagulation part of IS (Table 3b): 5.0 | H, calculated haemorrhage part of IS (Table 3b): 4.5 | IS (irritation score) (Table 3b): 15.1 | L, calculated lysis part of IS (Table 3b): 5.6 | C, time for appearance of coagulation (Table 3b, 1% test solution): 134 s | H, time for appearance of haemorrhage (Table 3b, 1% test solution): 31 s | L, time for appearance of lysis (Table 3b, 1% test solution): 63 s | C, time for appearance of coagulation (Table 6a): 134 s | Calculation C (Table 6a): 5.0 | Calculation H (Table 6a): 4.5 | Calculation L (Table 6a): 5.6 | H, time for appearance of haemorrhage (Table 6a): 31 s | IS (irritation score) (Table 6a): 15.1 | L, time for appearance of lysis (Table 6a): 63 s | C, calculated coagulation part of score (Table 12): 5.0 | C, time for appearance of coagulation (Table 12): 134 s | H, calculated haemorrhage part of score (Table 12): 4.5 | H, time for appearance of haemorrhage (Table 12): 31 s | Irritancy score (Table 12): 15.1 | L, calculated lysis part of score (Table 12): 5.6 | L, time for appearance of lysis (Table 12): 63 s

Cocamido propyl sulphobetaine
Irritancy Score by HET-CAM (1% test solution): 10

Cocomido propyl betaine
Irritancy Score by HET-CAM (1% test solution): 10.8

Lauramido propyl PG dimonium chloride phosphate
Irritancy Score by HET-CAM (1% test solution): 8.0

Cocamidopropyl PG dimonium chloride phosphate
Irritancy Score by HET-CAM (1% test solution): 7.5
